Results as given in US5986131A, “RXR selective ligands” (Hoffmann-La Roche Inc., priority 1997, dated 1999).

Legend:
[1] = tested on: nuclear retinoic acid receptors ("RAR"); settings: cited from earlier work
Rhino mouse utricles = assay: Rhino mouse utricle reduction activity; assay type: in vivo, Rhino mice; settings: topical; for Utricle Size: 3 weeks; for Utricle size % Change from Control: ns = not statistically significant, others p<0.05
Protocol: Compounds were dissolved in 100% acetone and stored at 4° C. for the duration of the experiment under nitrogen. […] One day after the last dose, the mice were sacrificed by CO2 inhalation. […] The epidermis was then separated from the dermis.
The samples were kept in each of the above solutions for 2 hours. The skin samples were removed from the xylene and mounted on glass microscope slides. Image analysis, using the Ultimage image analysis software, was used to determine the mean diameter and area of utricles. Approximately 5 fields per sample were examined, for an average of 150 utricles per mouse measured.

[2] = tested on: retinoic acid X receptors ("RXR"); settings: cited from earlier work
human sebaceous cells = assay: Antiproliferative activity on human sebocytes in vitro; assay type: cell-based; settings: Homo sapiens; for IC50: 240 h, first passage cells, 10 days of exposure, read-out: Inhibition of human sebaceous cell proliferation in vitro IC50
Protocol: Sebaceous cells were isolated from adult human sebaceous glands by a combination of enzymatic and mechanical methods (Doran et al., 1991). The cells were cultured in Iscove's medium containing 10% fetal calf serum and 4 μg/ml dexamethasone on a layer of growth-arrested 3T3 mouse fibroblasts. Cells were plated in medium without the test compound and then given test compound in fresh medium 24-48 hours after the initial plating. The cultures were given fresh medium, containing the test compound, every 48 hours. On the day of harvesting, the cultures were rinsed with 0.03% EDTA in PBS, to remove only the 3T3 fibroblasts. followed by incubation in 0.05% trypsin/0.03% EDTA. The cells were suspended, mixed vigorously to prepare a single cell suspension and counted in a hemocytometer.
Stock solutions of compounds were made up as 10^-2 M solutions in 100% DMSO and stored at -20° C. in the dark. Compounds in solution were brought to room temperature and used by diluting directly into complete medium to the appropriate concentration.
The compounds of Example 12, Example 2, and Example 4 were tested for their effects on inhibiting the proliferation of first passage human sebaceous cells in vitro after 10 days of exposure to drug.

[3] = tested on: Hamster Ear Sebaceous Gland; assay: Effect on size of sebaceous glands of Golden Syrian hamsters; assay type: in vivo; design: Sebaceous Gland Size: unit not given here; settings: 4 weeks topical dosing
Protocol: Charles River Golden Syrian male hamsters were given the desired dose in acetone. The compounds were stored at 4° C. protected from light. Fresh solutions were made up weekly.
Hamsters were dosed daily for five days, rested for two days, and dosed again for five days until 20 doses were given. The volume of solution was 50 microliters per ear.
Hamsters were sacrificed by CO2 inhalation, and the ears removed for histological evaluation. One ear was removed and the ventral surface separated from the rest of the ear. A 2 mm punch was removed 5 mm from the tip of the ear and stained in 0.1 % Sudan Black B dissolved in 100% propylene glycol overnight. After destaining, the size of sebaceous glands was quantified with a Donsanto Image Analysis System.
Data are given as the average area of 80-120 sebaceous glands per dose, as percent of the control (solvent-treated) sections.

mouse B cell = assay: Inhibition of LPS-induced mouse B cell proliferation (3H-thymidine incorporation); assay type: cell-based
Protocol: Single cell suspensions of mouse spleen were set up in culture in flatbottomed 96 well Microtiter trays, 0.2 ml/well of a 2×10^5 /ml cell suspension in IMDM supplemented with 10% foetal calf serum, HEPES, antibiotics and 50 μM 2-mercaptoethanol. The specific B cell mitogen E. coli lipopolysaccharide (DIFCO) (LPS) was added at 50μg/ml. Cultures were incubated at 37° C. in a humidified atmosphere and 5% CO2.
The retinoids to be tested were first titrated in triplicate from 10 nM to 10 μM and left throughout the whole culture period. […] Cyclosporin A (Sandoz AG) was used as a reference compound (from 1 nM to 1 μM).
The cultures were then harvested on glass fiber filters and the radioactivity imcorporated into DNA measured in a β-liquid scintillation counter (Betaplate, Wallac Oy, Turku, Finland).
The results are expressed as % of the response of untreated cultures. […] Retinoids were added to the cultures at the beginning of the culture period.

HL-60 cells = assay: HL-60 differentiation (NBT reduction); assay type: cell-based, human; settings: in combination with RARα retinoid
Protocol: Under the influence of retinoids, HL-60 cells (a human myeloid leukemia cell line) differentiate into granulocytes. This differentiation of HL-60 cells into granulocytes is mediated by RARα, and so provides the basis for the use of retinoids to treat leukemia.
Retinoid-induced differentiation of HL-60 cells was assayed by measuring their oxidative burst potential via the reduction of NBT (Nitroblueterstazolium) [Pick et al., J. Reticuloendothelial Soc., 30:581-593 (1981)].
HL-60 cells were maintained in RPMI 1640 medium supplemented with 10% FCS, 2mM L-glutamine, ImM sodium pyruvate, 1% non-essential amino acids, 50 U/ml penicillin and 50 μg/ml streptomycin (=RPMI/FCS).
30,000 cells/[…] of RPMI/FCS were seeded into flat-bottomed microtiter wells. 10 μl of retinoids diluted in complete medium were added at the same time to yield final concentrations betweeen 10^-11 and 10^-6 M (stock solutions of 10^-2 M in ethanol were kep at -20° C. and protected from light). After 3 days, the medium was removed with a multichannel pipette and replaced with 100 μl of NBT solution (1 mg/ml in PBS with 200 nM phorbol myristate acetate (PMA). Following an additional hour incubation at 37° C. the NBT solution was removed and 100 μl of 10% SDS in 0.01 N HCl was added. The amount of the reduced NBT was quantified photometrically at 540 nm using an automated plate reader. The mean of 3 wells was calculated. S.E.M. were between 5 and 10%.

RXRα = target: T1, RXRα (Homo sapiens, UniProt P19793); assay: RXRα activation (transactivation); assay type: cell-based; settings: Table 1; read-out: Activation ED50, RXRα
T1 sequence (P19793 1-462): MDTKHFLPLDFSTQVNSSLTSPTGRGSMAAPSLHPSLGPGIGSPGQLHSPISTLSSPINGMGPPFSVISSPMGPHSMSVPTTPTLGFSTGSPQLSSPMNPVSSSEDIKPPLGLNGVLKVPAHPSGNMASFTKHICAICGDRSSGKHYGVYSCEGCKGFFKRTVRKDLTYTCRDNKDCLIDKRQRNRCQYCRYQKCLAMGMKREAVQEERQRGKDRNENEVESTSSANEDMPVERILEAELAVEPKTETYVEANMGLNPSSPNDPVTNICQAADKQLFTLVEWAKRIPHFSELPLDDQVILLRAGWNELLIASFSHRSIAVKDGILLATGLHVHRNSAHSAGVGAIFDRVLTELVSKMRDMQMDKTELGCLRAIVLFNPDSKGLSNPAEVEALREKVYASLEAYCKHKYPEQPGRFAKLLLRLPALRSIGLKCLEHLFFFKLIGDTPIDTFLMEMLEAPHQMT
From the text: Methods essentially as described in those publications were used to determine the binding and transactivation properties of retinoids reported in the Examples herein.

CC1=C(/C=C/C(C)=C\C=C\C(C)=C\C(=O)O)C(C)(C)CCC1 [9-cis-retinoic acid, reference compound]
binding to RAR (in words) [1]: also acts as a ligand for the RAR group of receptors
Utricle Size (Rhino mouse utricles; 0.1 μg/day): 8650 ± 427 μm^2 / utricle
Utricle size % Change from Control (Rhino mouse utricles; 0.1 μg/day): -11%
Utricle Size (Rhino mouse utricles; 1 μg/day): 6926 ± 497 μm^2 / utricle
Utricle size % Change from Control (Rhino mouse utricles; 1 μg/day): -29%
Utricle Size (Rhino mouse utricles; 10 μg/day): 3540 ± 354 μm^2 / utricle
Utricle size % Change from Control (Rhino mouse utricles; 10 μg/day): -64%
Utricle Size (Rhino mouse utricles; 100 μg/day): 2644 ± 312 μm^2 / utricle
Utricle size % Change from Control (Rhino mouse utricles; 100 μg/day): -73%
binding to RXR (in words) [2]: binds to a group of receptors known as the retinoic acid X receptors
IC50 (human sebaceous cells): 100 nM

CC1=C(/C=C/C(C)=C/C=C/C(C)=C\C(=O)O)C(C)(C)CCC1 [13-cis-retinoic acid, reference compound]
binding to RAR (in words) [1]: bind to RARα
Sebaceous Gland Size ([3]; 1 μg/day): 14029 ± 2977
Sebaceous gland size % Change from Control ([3]; 1 μg/day, ns = not statistically significant): -15%
Sebaceous Gland Size ([3]; 10 μg/day): 12965 ± 2029
Sebaceous gland size % Change from Control ([3]; 10 μg/day, ns = not statistically significant): -21%
Sebaceous Gland Size ([3]; 100 μg/day): 10459 ± 1302
Sebaceous gland size % Change from Control ([3]; 100 μg/day): -37%
Utricle Size (Rhino mouse utricles; 0.1 μg/day): 9187 ± 794 μm^2 / utricle
Utricle size % Change from Control (Rhino mouse utricles; 0.1 μg/day): -6%
Utricle Size (Rhino mouse utricles; 1 μg/day): 6400 ± 424 μm^2 / utricle
Utricle size % Change from Control (Rhino mouse utricles; 1 μg/day): -34%
Utricle Size (Rhino mouse utricles; 10 μg/day): 3793 ± 368 μm^2 / utricle
Utricle size % Change from Control (Rhino mouse utricles; 10 μg/day): -61%
Utricle Size (Rhino mouse utricles; 100 μg/day): 3132 ± 305 μm^2 / utricle
Utricle size % Change from Control (Rhino mouse utricles; 100 μg/day): -68%
binding to RXR (in words) [2]: do not
IC50 (human sebaceous cells): 100 nM

CC1=C(/C=C/C(C)=C/C=C/C(C)=C/C(=O)O)C(C)(C)CCC1 [All-trans retinoic acid, all-trans retinoic acid, reference compound]
binding to RAR (in words) [1]: bind to RARα
inhibition at 0.01 µM (mouse B cell; Mus musculus, B-cell, 96 h, day 4, 10 nM, read-out: inhibition of B cell response): ~30%
IC50 (mouse B cell; alone, FIG. 4, day 3): 1 nM
effect on B cell response (mouse B cell; day 4, 1 nM): not inhibitory any longer and actually induces a minor enhancement of the response
binding to RXR (in words) [2]: do not

CC1(C)CCC(C)(C)c2cc(C(=O)Nc3ccc(C(=O)O)cc3)ccc21 [Compound A, reference compound]
potentiation of HL-60 differentiation (in words) (HL-60 cells): somewhat more pronounced
EC50 (RXRα): > 10000 nM

CC1=C(/C=C/C(C)=C(Br)\C=C\C(C)=C\C(=O)O)C(C)(C)CCC1 [Example 2, (All-E)-6-Bromo-3,7-dimethyl-9-(2,6,6-trimethyl-1-cyclohexen-1-yl)-2,4,6,8-nonatetraenoic acid]
Utricle Size (Rhino mouse utricles; 0.1 μg/day): 9535 ± 890 μm^2 / utricle
Utricle size % Change from Control (Rhino mouse utricles; 0.1 μg/day): -2%
Utricle Size (Rhino mouse utricles; 1 μg/day): 9616 ± 1134 μm^2 / utricle
Utricle size % Change from Control (Rhino mouse utricles; 1 μg/day): -1%
Utricle Size (Rhino mouse utricles; 10 μg/day): 9049 ± 891 μm^2 / utricle
Utricle size % Change from Control (Rhino mouse utricles; 10 μg/day): -7%
Utricle Size (Rhino mouse utricles; 100 μg/day): 5437 ± 615 μm^2 / utricle
Utricle size % Change from Control (Rhino mouse utricles; 100 μg/day): -44%
inhibition at 1 µM (human sebaceous cells; 1000 nM, first experiment, read-out: inhibition of sebaceous cell growth): 70%

CC1=C(/C=C/C(C)=C(Cl)\C=C\C(C)=C\C(=O)O)C(C)(C)CCC1 [Example 12, (All-E-)-6-chloro-3,7-dimethyl-9-(2,6,6-trimethyl-1-cyclohexen-1-yl)-2,4,6,8-nonatetraenoic acid]
Utricle Size (Rhino mouse utricles; 0.1 μg/day): 9104 ± 829 μm^2 / utricle
Utricle size % Change from Control (Rhino mouse utricles; 0.1 μg/day): -7%
Utricle Size (Rhino mouse utricles; 1 μg/day): 9156 ± 938 μm^2 / utricle
Utricle size % Change from Control (Rhino mouse utricles; 1 μg/day): -6%
Utricle Size (Rhino mouse utricles; 10 μg/day): 7634 ± 485 μm^2 / utricle
Utricle size % Change from Control (Rhino mouse utricles; 10 μg/day): -22%
Utricle Size (Rhino mouse utricles; 100 μg/day): 3596 ± 300 μm^2 / utricle
Utricle size % Change from Control (Rhino mouse utricles; 100 μg/day): -63%
IC50 (human sebaceous cells): 100 nM
